Test results: patent US20230287021A1, “COMPOUNDS, COMPOSITIONS AND METHODS FOR STABILIZING TRANSTHYRETIN AND INHIBITING TRANSTHYRETIN MISFOLDING” (Protego Biopharma, Inc., priority 2020, published 2023)
Structures can show the parent of a compound that is named as a salt.

assay: In vitro rat plasma stability assay, formation of tafamidis; format: in vitro ADME; details: 37° C., 2 µM test compound
Method: A stability assay in plasma (rat or human) was used to evaluate the ability of a compound provided herein to convert to an active TTR stabilizer. The test compound was added to plasma and incubated at 37° C. in a water bath at a concentration of 2 µM. At each time point (0, 10, 30, 60 and 120 min or 0, 60, 120, 180 and 240 min), stop solution (tolbutamide plus labetalol) was added to precipitate protein and mixed thoroughly. After centrifugation, an aliquot of supernatant was analyzed by LC-MS/MS. The percentage of formation of active agent was calculated at each time point.

Row | SMILES | Formation of tafamidis at 120 min
1 | O=C(OCCC[n+]1ccccc1)c1ccc2nc(-c3cc(Cl)cc(Cl)c3)oc2c1.[Br-] [Compound 3, 1-(3-(2-(3,5-Dichlorophenyl)benzo[d]oxazole-6-carbonyloxy)propyl)-pyridinium bromide] | A (A is <25%)
2 | O=C(OCCC[P+](c1ccccc1)(c1ccccc1)c1ccccc1)c1ccc2nc(-c3cc(Cl)cc(Cl)c3)oc2c1.[Br-] [Compound 4, (3-(2-(3,5-Dichlorophenyl)benzo[d]oxazole-6-carbonyloxy)propyl) triphenylphosphonium bromide] | A (A is <25%)
3 | O=C(OC[C@H]1O[C@@H](O)C(O)[C@H](O)C1O)c1ccc2nc(-c3cc(Cl)cc(Cl)c3)oc2c1 (some centres unmarked) [Compound 5, (3,4,5,6-Tetrahydroxytetrahydro-2H-pyran-2-yl)methyl 2-(3,5-Dichlorophenyl) Benzo[d]oxazole-6-Carboxylate] | A (A is <25%)
4 | CN(C)CCOC(=O)c1ccc2nc(-c3cc(Cl)cc(Cl)c3)oc2c1 [Compound 6, 2-(dimethylamino)ethyl 2-(3,5-dichlorophenyl)benzo-[d]oxazole-6-carboxylate hydrochloride] | D (D is ≥75%)
5 | CN(CCOC(=O)c1ccc2nc(-c3cc(Cl)cc(Cl)c3)oc2c1)C(=O)OC(C)(C)C [Compound 8, 2-((tert-butoxycarbonyl)(methyl)amino)ethyl 2-(3,5-dichlorophenyl) benzo[d] oxazole-6-carboxylate] | D (D is ≥75%)
6 | CNCCOC(=O)c1ccc2nc(-c3cc(Cl)cc(Cl)c3)oc2c1 [Compound 9, 2-(methylamino)ethyl 2-(3,5-dichlorophenyl)benzo[d]oxazole-6-carboxylate hydrochloride] | A (A is <25%)
7 | CC(C)(C)OC(=O)NCCOC(=O)c1ccc2nc(-c3cc(Cl)cc(Cl)c3)oc2c1 [Compound 10, 2-((tert-butoxycarbonyl)amino)ethyl 2-(3,5-dichlorophenyl) benzo [d]oxazole-6-carboxylate] | A (A is <25%)
8 | CC(C)(C)OC(=O)N1CCC(OC(=O)c2ccc3nc(-c4cc(Cl)cc(Cl)c4)oc3c2)CC1 [Compound 12, 1-(tert-butoxycarbonyl)piperidin-4-yl 2-(3,5-dichlorophenyl)benzo [d]oxazole-6-carboxylate] | A (A is <25%)
9 | NCCOC(=O)c1ccc2nc(-c3cc(Cl)cc(Cl)c3)oc2c1 [Compound 15, 2-aminoethyl 2-(3,5-dichlorophenyl)benzo[d]oxazole-6-carboxylate] | A (A is <25%)
10 | CC(C)(C)OC(=O)N1CCC(OC(=O)c2ccc3nc(-c4cc(Cl)cc(Cl)c4)oc3c2)C1 (centres unmarked) [Compound 16, 1-(tert-butoxycarbonyl)pyrrolidin-3-yl 2-(3,5-dichlorophenyl) benzo[d]oxazole-6-carboxylate] | B (B is ≥25 to <50%)
11 | CC(C)(C)OC(=O)N[C@@H](Cc1ccc(OC(=O)c2ccc3nc(-c4cc(Cl)cc(Cl)c4)oc3c2)cc1)C(=O)OCc1ccccc1 [Compound 18, (S)-4-(3-(benzyloxy)-2-((tert-butoxycarbonyl)amino)-3-oxopropyl) phenyl 2-(3,5-dichlorophenyl)benzo[d]oxazole-6-carboxylate] | C (C is ≥50 to <75%)
12 | CC(C)(C)OC(=O)N[C@@H](Cc1cccc(OC(=O)c2ccc3nc(-c4cc(Cl)cc(Cl)c4)oc3c2)c1)C(=O)OCc1ccccc1 [Compound 19, (S)-3-(3-(benzyloxy)-2-((tert-butoxycarbonyl)amino)-3-oxopropyl) phenyl 2-(3,5-dichlorophenyl)benzo[d]oxazole-6-carboxylate] | B (B is ≥25 to <50%)
13 | CC(C)(C)OC(=O)N[C@@H](Cc1cccc(OC(=O)c2ccc3nc(-c4cc(Cl)cc(Cl)c4)oc3c2)c1)C(=O)O [Compound 20, (S)-2-((tert-butoxycarbonyl)amino)-3-(3-((2-(3,5-dichlorophenyl)benzo [d]oxazole-6-carbonyl)oxy)phenyl)propanoic acid] | B (B is ≥25 to <50%)
14 | O=C(OC1CCOC1=O)c1ccc2nc(-c3cc(Cl)cc(Cl)c3)oc2c1 (centres unmarked) [Compound 21] | B (B is ≥25 to <50%)
15 | CC(C)(C)OC(=O)N[C@@H](Cc1ccc(OC(=O)c2ccc3nc(-c4cc(Cl)cc(Cl)c4)oc3c2)cc1)C(=O)O [Compound 22, (S)-2-((tert-butoxycarbonyl)amino)-3-(4-((2-(3,5-dichlorophenyl)benzo[d]oxazole-6-carbonyl)oxy)phenyl)propanoic acid] | D (D is ≥75%)
16 | Cc1oc(=O)oc1COC(=O)c1ccc2nc(-c3cc(Cl)cc(Cl)c3)oc2c1 [Compound 24, (5-methyl-2-oxo-1,3-dioxol-4-yl)methyl 2-(3,5-dichlorophenyl)benzo[d] oxazole-6-carboxylate] | D (D is ≥75%)
17 | NCCCOC(=O)c1ccc2nc(-c3cc(Cl)cc(Cl)c3)oc2c1 [Compound 25, 3-aminopropyl 2-(3,5-dichlorophenyl)benzo[d]oxazole-6-carboxylate hydrochloride] | A (A is <25%)
18 | C[N+](C)(C)CCOC(=O)c1ccc2nc(-c3cc(Cl)cc(Cl)c3)oc2c1.[Cl-] [Compound 29, 2-((2-(3,5-dichlorophenyl)benzo[d]oxazole-6-carbonyl)oxy)-N,N,N-trimethylethanaminium chloride] | A (A is <25%)
19 | Cc1oc(=O)n(C)c1COC(=O)c1ccc2nc(-c3cc(Cl)cc(Cl)c3)oc2c1 [Compound 30, (3,5-dimethyl-2-oxo-2,3-dihydrooxazol-4-yl)methyl 2-(3,5-dichlorophenyl) benzo[d]oxazole-6-carboxylate] | B (B is ≥25 to <50%)

Row | SMILES | Formation of tafamidis at 120 min
20 | CC(C)(C)OC(=O)NCCCOC(=O)c1ccc2nc(-c3cc(Cl)cc(Cl)c3)oc2c1 [Compound 31, 3-((tert-butoxycarbonyl)amino)propyl 2-(3,5-dichlorophenyl) benzo [d]oxazole-6-carboxylate] | C (C is ≥50 to <75%)
21 | CCN(C)CCOC(=O)c1ccc2nc(-c3cc(Cl)cc(Cl)c3)oc2c1 [Compound 43] | C (C is ≥50 to <75%)
22 | C[C@@H](COC(=O)c1ccc2nc(-c3cc(Cl)cc(Cl)c3)oc2c1)N(C)C [Compound 44, (S)-2-(dimethylamino)propyl 2-(3,5-dichlorophenyl)benzo[d] oxazole-6-carboxylate] | C (C is ≥50 to <75%)
23 | C[C@H](COC(=O)c1ccc2nc(-c3cc(Cl)cc(Cl)c3)oc2c1)N(C)C [Compound 45, (R)-2-(dimethylamino)propyl 2-(3,5-dichlorophenyl)benzo[d] oxazole-6-carboxylate] | C (C is ≥50 to <75%)
24 | CN(C)CCCCCOC(=O)c1ccc2nc(-c3cc(Cl)cc(Cl)c3)oc2c1 [Compound 51, 5-(dimethylamino)pentyl 2-(3,5-dichlorophenyl)benzo[d] oxazole-6-carboxylate] | D (D is ≥75%)
25 | CN(C)C(CO)COC(=O)c1ccc2nc(-c3cc(Cl)cc(Cl)c3)oc2c1 (centres unmarked) [Compound 55, 2-(dimethylamino)-3-hydroxypropyl 2-(3,5-dichlorophenyl) benzo [d]oxazole-6-carboxylate] | D (D is ≥75%)
26 | CN1C[C@@H](O)[C@H](OC(=O)c2ccc3nc(-c4cc(Cl)cc(Cl)c4)oc3c2)C1 [Compound 56, (3R,4R)-4-hydroxy-1-methylpyrrolidin-3-yl 2-(3,5-dichlorophenyl)benzo[d] oxazole-6-carboxylate] | D (D is ≥75%)
27 | CC(C)(C)OC(=O)N[C@H](Cc1cccc(OC(=O)c2ccc3nc(-c4cc(Cl)cc(Cl)c4)oc3c2)c1)C(=O)OCc1ccccc1 [Compound 63] | B (B is ≥25 to <50%)
28 | O=C(NCCO)c1ccc2nc(-c3cc(Cl)cc(Cl)c3)oc2c1 [Compound 64, 2-(3,5-dichlorophenyl)-N-(2-hydroxyethyl)benzo[d]oxazole-6-carboxamide] | A (A is <25%)
29 | CN(CCO)C(=O)c1ccc2nc(-c3cc(Cl)cc(Cl)c3)oc2c1 [Compound 65, 2-(3,5-dichlorophenyl)-N-(2-hydroxyethyl)-N-methylbenzo [d] oxazole-6-carboxamide] | A (A is <25%)
30 | O=C(NCC(F)(F)F)c1ccc2nc(-c3cc(Cl)cc(Cl)c3)oc2c1 [Compound 67, 2-(3,5-dichlorophenyl)-N-(2,2,2-trifluoroethyl)benzo[d] oxazole-6-carboxamide] | A (A is <25%)
31 | O=C(NCCCO)c1ccc2nc(-c3cc(Cl)cc(Cl)c3)oc2c1 [Compound 68, 2-(3,5-dichlorophenyl)-N-(3-hydroxypropyl)benzo[d]oxazole-6-carboxamide] | A (A is <25%)
32 | CC(C)(C)OC(=O)N[C@H](Cc1ccc(OC(=O)c2ccc3nc(-c4cc(Cl)cc(Cl)c4)oc3c2)cc1)C(=O)OCc1ccccc1 [Compound 69] | A (A is <25%)
33 | CC(C)(C)OC(=O)N[C@H](Cc1ccc(OC(=O)c2ccc3nc(-c4cc(Cl)cc(Cl)c4)oc3c2)cc1)C(=O)O [Compound 70] | B (B is ≥25 to <50%)
34 | N[C@H](Cc1ccc(OC(=O)c2ccc3nc(-c4cc(Cl)cc(Cl)c4)oc3c2)cc1)C(=O)O [Compound 71] | A (A is <25%)
35 | CC(C)(C)OC(=O)N[C@H](Cc1cccc(OC(=O)c2ccc3nc(-c4cc(Cl)cc(Cl)c4)oc3c2)c1)C(=O)O [Compound 72] | B (B is ≥25 to <50%)
36 | O=C(OCCCN1CCOCC1)c1ccc2nc(-c3cc(Cl)cc(Cl)c3)oc2c1 [Compound 81] | D (D is ≥75%)
37 | O=C(OCCCN1CCNCC1)c1ccc2nc(-c3cc(Cl)cc(Cl)c3)oc2c1 [Compound 83] | D (D is ≥75%)
38 | O=C(OCCCN1CCS(=O)(=O)CC1)c1ccc2nc(-c3cc(Cl)cc(Cl)c3)oc2c1 [Compound 84] | D (D is ≥75%)
